Consider 23 compounds from patent publication US6410592B1, “Aminomethylcarboxylic acid derivatives” (Akzo Nobel N.V., priority 1998, dated 2002).

In data set [1] the target is T1, human GlyT-1b transporter (Homo sapiens, UniProt P48067).
T1 construct: expressed in transfected cells; host or cells: CHO cells, stably transfected, pcDNA3 expression construct
T1 sequence (P48067 1-652 isoform P48067-3): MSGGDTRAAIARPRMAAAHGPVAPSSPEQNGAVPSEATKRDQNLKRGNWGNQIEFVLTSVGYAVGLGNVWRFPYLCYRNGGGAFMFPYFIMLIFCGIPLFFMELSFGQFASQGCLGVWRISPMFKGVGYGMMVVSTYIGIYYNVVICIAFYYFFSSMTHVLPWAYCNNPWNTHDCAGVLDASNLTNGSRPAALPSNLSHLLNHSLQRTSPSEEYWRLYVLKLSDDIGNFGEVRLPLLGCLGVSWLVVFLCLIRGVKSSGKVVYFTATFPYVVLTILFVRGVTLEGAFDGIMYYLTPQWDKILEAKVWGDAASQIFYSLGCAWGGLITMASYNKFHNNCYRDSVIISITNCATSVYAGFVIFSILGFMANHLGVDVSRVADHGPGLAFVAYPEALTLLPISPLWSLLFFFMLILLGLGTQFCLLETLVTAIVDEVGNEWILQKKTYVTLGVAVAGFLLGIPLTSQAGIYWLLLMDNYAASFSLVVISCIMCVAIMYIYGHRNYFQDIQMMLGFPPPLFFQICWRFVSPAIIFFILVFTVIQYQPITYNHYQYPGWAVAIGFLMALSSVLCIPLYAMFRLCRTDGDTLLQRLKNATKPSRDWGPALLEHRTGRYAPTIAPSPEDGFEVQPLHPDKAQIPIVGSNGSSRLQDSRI
The experiment in a line: glycine uptake in CHO cells heterologously expressing the human GlyT-1b transporter. Type of data set: cell-based. The conditions noted are these: [3H]glycine uptake, CHO cells stably expressing hGlyT-1b, 5 min preincubation, 10 min uptake, 37° C.; for IC50: read-out: pIC50, Inhibition of glycine transport by hGlyT-1 (converted). As for the experimental part: Method for determination of glycine uptake in CHO cells heterologously expressing the human GlyT-1b transporter.
cDNA was generated by PCR according to the method described by Kim, K.-M. et al. Mol. Pharmacol. 1994, 45, 608-617. Sequence was verified by dideoxy sequencing using the ALF DNA sequencer™ (Pharmacia) and cloned into the expression construct pcDNA3 (Invitrogen).
Transfection of hGlyT-1b into CHO cells was performed using a standard calcium phosphate technique as described by Sambrook, J. et al. (1989) in Molecular Cloning: A Laboratory Manual, Cold Spring Harbor Laboratory, Cold Spring Harbor, N.Y.
Stably transfected cells were selected for 1 week in growth medium containing 1 mg.cm^−3 Geneticin. Individual clones were picked for further analysis and positives passaged routinely as described below.
Cells stably expressing the hGlyT-1b gene were cultured at 37° C. in a 5% CO2 atmosphere in DMEM—NUT.MIX. F12 with Glutamax-1 (Gibco) containing Geneticin (0.5 mg.cm^−3, Gibco) and supplemented with 10% Fetalclone II (Hyclone). Maintenance culture was carried out in standard 80 cm^2 ventilated flasks (2 m^−6 filter, Nunc) and cells were subcultured by trypsinisation (Sigma) when confluent.
Cells for uptake studies were plated in 96 well plates (17,000 cells per well) in the absence of Geneticin and cultured for 48 h before use. To measure glycine transport, cells were washed twice with Hanks' balanced salt solution (HBSS) pre-warmed to 37° C. and excess fluid removed before addition of test compounds dissolved in 0.200 cm^3 HBSS. Plates were incubated at 37° C. for 5 minutes before addition of [^3H]glycine (0.050 cm^3, 150 M^−6, 248 Bq.nmol^−1, NEN) and incubation continued for a further 10 minutes. Uptake was terminated by washing cells with ice-cold HBSS before removal of excess fluid and addition of 0.200 cm^3 scintillation cocktail to each well. Plates were sealed with adhesive film, shaken to ensure samples were homogenous before scintillation counting in a plate counter.
Data were analysed using standard curve fitting procedures to produce a pIC50 value for active compounds (where pIC50 is the negative logarithm of the concentration of test compound causing 50% inhibition of uptake).

Where a name gives a salt, the structure may show the parent alone. Some results are limits rather than exact numbers.

In general, melting point refers to the temperature, or range, at which the solid turns liquid. Take `CN(CC(=O)O)CC1CCc2cc(C(F)(F)F)ccc2C1c1ccc(F)cc1` (racemic) (as salt: salt) [(+/−)-8, Lithium cis-N-methyl-N-[1-(4-fluorophenyl)-6-trifluoromethyl-1,2,3,4-tetrahydronaphthalen-2-ylmethyl] aminomethylcarboxylate]: the melting point was 137 to 142 °C.

With `CN(CC(=O)O)C[C@H]1CCc2cc(OC3CCCCC3)ccc2[C@H]1c1ccccc1.Cl` (relative stereo), the melting point was > 210 °C (dec.).

As for `CN(CC(=O)O)CC1CCc2cc(OCC(C)(C)C)ccc2C1c1ccccc1` (single isomer, unassigned; (-)) (as salt: salt) [Example (−)-34, (−)-Lithium cis-N-methyl-N-[1-phenyl-6-(2,2-dimethylpropyloxy)-1,2,3,4-tetrahydronaphthalen-2-ylmethyl] aminomethylcarboxylate], the melting point was 168 to 170 °C.

Compound `CN(CC(=O)O)CC1CCc2cc(C(F)(F)F)ccc2C1c1ccc(F)cc1` (single isomer, unassigned; (-)) (as salt: salt) [Example (−)-8, (−)-Lithium N-methyl-N-[1-(4-fluorophenyl)-6-trifluoromethyl-1,2,3,4-tetrahydronaphthalen-2-ylmethyl] aminomethylcarboxylate] yielded a melting point of 161 to 164 °C.

For the compound `CN(CC(=O)O)CC1CCc2cc(Oc3ccccc3)ccc2C1c1ccccc1` (racemic) (as salt: salt) [(+/−)-17, Lithium cis-N-methyl-N-(6-phenoxy-1-phenyl-1,2,3,4-tetrahydronaphthalen-2-ylmethyl) aminomethylcarboxylate], the melting point lay in the range of 191 to 200 °C.

Compound `CN(CC(=O)O)C[C@H]1CCc2cc(OCC(C)(C)C)ccc2[C@H]1c1ccccc1.Cl` (racemic) [(+/−)-34, cis-N-Methyl-N-[6-(2,2-dimethylpropyloxy)-1-phenyl-1,2,3,4-tetrahydronaphthalen-2-ylmethyl] aminomethylcarboxylic acid hydrochloride] had a melting point of 151 to 155 °C. In data set [1], the IC50 was 251 nM.

Turning to `CN(CC(=O)O)C[C@H]1CCc2cc(OCc3ccccc3)ccc2[C@H]1c1ccccc1.Cl` (relative stereo), the melting point was in the range of 200 to 210 °C.

Consider `CN(CC(=O)O)CC1CCc2cc(Oc3ccccc3)ccc2C1c1ccccc1` (single isomer, unassigned; (-)) [Example (−)-17, (−)-Sodium cis-N-methyl-N-(6-phenoxy-1-phenyl-1,2,3,4-tetrahydronaphthalen-2-ylmethyl) aminomethylcarboxylate], for which the IC50 in data set [1] is 100 nM.

`COC(=O)c1ccc2c(c1)CC[C@H](CN(C)CC(=O)O)[C@@H]2c1ccccc1.Cl` (relative stereo) had a melting point of 166 to 171 °C.

With `CN(CC(=O)O)CC1CCc2cc(OCC(C)(C)C)ccc2C1c1ccccc1` (single isomer, unassigned; (-)) [Example (−)-34, (−)-Lithium cis-N-methyl-N-[1-phenyl-6-(2,2-dimethylpropyloxy)-1,2,3,4-tetrahydronaphthalen-2-ylmethyl] aminomethylcarboxylate], in data set [1], the IC50 was 251 nM.

With `CN(CC(=O)O)CC1CCc2cc(C(F)(F)F)ccc2C1c1ccc(F)cc1` (racemic) [(+/−)-8, Lithium cis-N-methyl-N-[1-(4-fluorophenyl)-6-trifluoromethyl-1,2,3,4-tetrahydronaphthalen-2-ylmethyl] aminomethylcarboxylate], in data set [1], the IC50 is 126 nM.

For the compound `CN(CC(=O)O)CC1CCc2cc(C(F)(F)F)ccc2C1c1ccc(F)cc1` (single isomer, unassigned; (-)) [Example (−)-8, (−)-Lithium N-methyl-N-[1-(4-fluorophenyl)-6-trifluoromethyl-1,2,3,4-tetrahydronaphthalen-2-ylmethyl] aminomethylcarboxylate], the IC50 in data set [1] is 50.1 nM.

Take `CN(CC(=O)O)CC1CCc2cc(Oc3ccccc3)ccc2C1c1ccccc1` (racemic) [(+/−)-17, Lithium cis-N-methyl-N-(6-phenoxy-1-phenyl-1,2,3,4-tetrahydronaphthalen-2-ylmethyl) aminomethylcarboxylate]: the IC50 in data set [1] is 158 nM.

As to `COc1ccc2c(c1)CCC(CN(C)CC(=O)O)C2c1ccccc1` (racemic) [(+/−)-4, Lithium cis-N-methyl-N-(6-methoxy-1-phenyl-1,2,3,4-tetrahydronaphthalen-2-ylmethyl) aminomethylcarboxylate], the IC50 in data set [1] was 501 nM.

`Cc1ccc2c(c1)CCC(CN(C)CC(=O)O)C2c1ccccc1` (racemic) (as salt: salt) [(+/−)-23, Lithium cis-N-methyl-N-(6-methyl-1-phenyl-1,2,3,4-tetrahydronaphthalen-2-ylmethyl) aminomethylcarboxylate]: the melting point was in the range of 135 to 138 °C.

Consider `Cc1ccc2c(c1)CCC(CN(C)CC(=O)O)C2c1ccccc1` (racemic) [(+/−)-23, Lithium cis-N-methyl-N-(6-methyl-1-phenyl-1,2,3,4-tetrahydronaphthalen-2-ylmethyl) aminomethylcarboxylate], for which the IC50 in data set [1] was 251 nM.

Take `COc1ccc2c(c1)CC[C@H](CN(C)CC(=O)[O-])[C@@H]2c1ccccc1.[Li+]` (relative stereo) [Example (−)-4, (−)-Lithium cis-N-methyl-N-(6-methoxy-1-phenyl-1,2,3,4-tetrahydronaphthalen-2-ylmethyl) aminomethylcarboxylate]: in data set [1], the “pIC50, Inhibition of glycine transport by hGlyT-1” value was determined as 6.8.

Regarding `COc1ccc2c(c1)CC[C@H](CN(C)CC(=O)O)[C@@H]2c1cccc(C)c1.O=C(O)C(F)(F)F` (relative stereo), the melting point is 96 to 106 °C.

`CN(CC(=O)O)C[C@H]1CCc2cc(-c3ccccc3)ccc2[C@H]1c1ccccc1.Cl` (relative stereo) came in with a melting point of 210 to 221 °C.

Consider `CN(CC(=O)O)C[C@H]1CCc2cc(C#N)ccc2[C@H]1c1ccccc1.Cl` (relative stereo), for which the melting point was 197 °C (dec.).

`CN(CC(=O)O)C[C@H]1CCc2ccccc2[C@H]1c1ccccc1.Cl` (relative stereo): the melting point is 205 to 211 °C (dec.).

On to `Cc1ccc2c(c1)CCC(CN(C)CC(=O)O)C2c1ccccc1` (single isomer, unassigned; (-)) [Example (−)-23, (−)-Sodium cis-N-methyl-N-(6-methyl-1-phenyl-1,2,3,4-tetrahydronaphthalen-2-ylmethyl) aminomethylcarboxylate], for which the IC50 in data set [1] was 126 nM.

`CN(CC(=O)O)C[C@H]1CCc2cc(OCC3CC3)ccc2[C@H]1c1ccccc1.Cl` (relative stereo) gave a melting point of 173 to 177 °C.
